Among the targets are TRPV4 (Homo sapiens, UniProt Q9HBA0); Kv1.5 (Homo sapiens, UniProt P22460); TRPA1 (Homo sapiens, UniProt O75762); hERG (Homo sapiens, UniProt Q12809); Cav1.2 (Homo sapiens, UniProt Q13936).
What all share (experiment): cell-based
Another assay deals with T1, TRPC5 (Homo sapiens, UniProt Q9UL62).
T1 sequence (Q9UL62 1-973): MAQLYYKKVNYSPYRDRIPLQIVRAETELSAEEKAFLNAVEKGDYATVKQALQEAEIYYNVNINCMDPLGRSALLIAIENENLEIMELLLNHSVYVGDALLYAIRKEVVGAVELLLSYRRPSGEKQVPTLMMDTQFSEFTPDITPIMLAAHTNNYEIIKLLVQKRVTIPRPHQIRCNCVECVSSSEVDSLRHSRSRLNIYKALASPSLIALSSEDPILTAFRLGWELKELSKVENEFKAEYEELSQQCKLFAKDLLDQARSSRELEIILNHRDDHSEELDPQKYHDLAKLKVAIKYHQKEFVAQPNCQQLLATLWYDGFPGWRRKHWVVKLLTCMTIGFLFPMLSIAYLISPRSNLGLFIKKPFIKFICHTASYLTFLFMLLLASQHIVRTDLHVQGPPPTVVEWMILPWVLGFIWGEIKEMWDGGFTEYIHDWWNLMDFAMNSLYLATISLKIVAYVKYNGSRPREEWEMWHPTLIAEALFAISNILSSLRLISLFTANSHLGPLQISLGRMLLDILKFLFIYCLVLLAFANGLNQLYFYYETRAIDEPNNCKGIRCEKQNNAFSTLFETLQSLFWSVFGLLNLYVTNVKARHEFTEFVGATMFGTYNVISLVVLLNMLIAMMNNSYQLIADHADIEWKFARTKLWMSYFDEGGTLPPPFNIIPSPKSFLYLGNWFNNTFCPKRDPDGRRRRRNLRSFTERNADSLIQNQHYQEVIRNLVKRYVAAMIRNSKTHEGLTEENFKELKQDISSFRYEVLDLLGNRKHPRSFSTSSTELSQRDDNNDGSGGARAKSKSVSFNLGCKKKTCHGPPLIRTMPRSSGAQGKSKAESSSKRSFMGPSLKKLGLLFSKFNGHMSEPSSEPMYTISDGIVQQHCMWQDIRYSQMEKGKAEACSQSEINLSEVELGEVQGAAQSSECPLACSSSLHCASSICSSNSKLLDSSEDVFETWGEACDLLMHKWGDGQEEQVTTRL

A value given as a limit tells only on which side of the number the result lay.

Chain of TRPA1 (O75762 whole entry): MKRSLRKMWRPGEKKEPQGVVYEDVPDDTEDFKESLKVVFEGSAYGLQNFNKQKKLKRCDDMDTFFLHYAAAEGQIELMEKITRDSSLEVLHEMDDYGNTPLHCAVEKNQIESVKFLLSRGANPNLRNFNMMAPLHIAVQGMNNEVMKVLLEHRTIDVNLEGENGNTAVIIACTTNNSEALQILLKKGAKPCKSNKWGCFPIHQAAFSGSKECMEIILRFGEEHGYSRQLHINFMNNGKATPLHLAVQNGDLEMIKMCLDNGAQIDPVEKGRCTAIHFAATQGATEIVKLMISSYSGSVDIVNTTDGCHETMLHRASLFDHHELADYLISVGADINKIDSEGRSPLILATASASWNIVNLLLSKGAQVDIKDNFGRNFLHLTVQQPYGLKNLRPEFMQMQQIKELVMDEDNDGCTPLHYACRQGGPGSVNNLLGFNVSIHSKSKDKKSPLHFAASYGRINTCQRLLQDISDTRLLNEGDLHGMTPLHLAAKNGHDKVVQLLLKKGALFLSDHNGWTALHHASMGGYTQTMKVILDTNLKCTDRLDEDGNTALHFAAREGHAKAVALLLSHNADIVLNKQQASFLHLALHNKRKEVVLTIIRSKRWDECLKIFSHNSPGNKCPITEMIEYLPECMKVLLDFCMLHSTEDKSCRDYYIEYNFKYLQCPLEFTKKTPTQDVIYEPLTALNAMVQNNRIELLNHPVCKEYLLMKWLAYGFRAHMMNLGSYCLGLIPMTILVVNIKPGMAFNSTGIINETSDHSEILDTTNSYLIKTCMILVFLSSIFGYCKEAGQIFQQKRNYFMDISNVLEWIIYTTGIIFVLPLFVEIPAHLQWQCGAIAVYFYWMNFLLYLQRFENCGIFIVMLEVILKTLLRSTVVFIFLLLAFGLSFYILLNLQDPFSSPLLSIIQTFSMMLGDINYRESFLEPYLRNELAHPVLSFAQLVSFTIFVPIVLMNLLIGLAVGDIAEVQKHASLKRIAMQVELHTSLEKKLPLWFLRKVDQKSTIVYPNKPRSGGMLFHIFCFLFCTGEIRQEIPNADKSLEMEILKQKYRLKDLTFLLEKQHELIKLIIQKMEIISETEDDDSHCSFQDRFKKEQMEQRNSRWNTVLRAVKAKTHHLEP
Chain of TRPV4 (Q9HBA0 whole entry): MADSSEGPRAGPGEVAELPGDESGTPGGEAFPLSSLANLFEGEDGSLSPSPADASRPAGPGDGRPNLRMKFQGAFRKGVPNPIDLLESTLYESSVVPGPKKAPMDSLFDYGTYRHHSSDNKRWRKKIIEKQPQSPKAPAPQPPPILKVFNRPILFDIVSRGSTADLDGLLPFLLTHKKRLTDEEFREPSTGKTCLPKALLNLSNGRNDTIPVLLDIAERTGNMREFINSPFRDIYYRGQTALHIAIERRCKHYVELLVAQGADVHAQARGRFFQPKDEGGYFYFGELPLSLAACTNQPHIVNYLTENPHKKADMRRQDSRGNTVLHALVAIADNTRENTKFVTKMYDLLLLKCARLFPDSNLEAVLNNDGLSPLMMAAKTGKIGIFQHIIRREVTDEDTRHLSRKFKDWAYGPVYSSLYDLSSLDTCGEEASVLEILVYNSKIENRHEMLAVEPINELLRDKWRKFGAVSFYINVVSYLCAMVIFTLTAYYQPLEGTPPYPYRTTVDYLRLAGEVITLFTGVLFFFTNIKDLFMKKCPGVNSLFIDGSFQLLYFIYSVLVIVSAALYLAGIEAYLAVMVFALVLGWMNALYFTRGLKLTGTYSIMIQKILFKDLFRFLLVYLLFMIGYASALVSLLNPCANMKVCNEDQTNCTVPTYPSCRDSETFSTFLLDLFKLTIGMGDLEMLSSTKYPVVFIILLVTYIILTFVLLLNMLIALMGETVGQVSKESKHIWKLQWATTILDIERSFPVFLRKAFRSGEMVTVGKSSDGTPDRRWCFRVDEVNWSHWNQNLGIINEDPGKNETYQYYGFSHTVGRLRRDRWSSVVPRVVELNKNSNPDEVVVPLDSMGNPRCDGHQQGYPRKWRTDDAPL
Chain of Kv1.5 (P22460 whole entry): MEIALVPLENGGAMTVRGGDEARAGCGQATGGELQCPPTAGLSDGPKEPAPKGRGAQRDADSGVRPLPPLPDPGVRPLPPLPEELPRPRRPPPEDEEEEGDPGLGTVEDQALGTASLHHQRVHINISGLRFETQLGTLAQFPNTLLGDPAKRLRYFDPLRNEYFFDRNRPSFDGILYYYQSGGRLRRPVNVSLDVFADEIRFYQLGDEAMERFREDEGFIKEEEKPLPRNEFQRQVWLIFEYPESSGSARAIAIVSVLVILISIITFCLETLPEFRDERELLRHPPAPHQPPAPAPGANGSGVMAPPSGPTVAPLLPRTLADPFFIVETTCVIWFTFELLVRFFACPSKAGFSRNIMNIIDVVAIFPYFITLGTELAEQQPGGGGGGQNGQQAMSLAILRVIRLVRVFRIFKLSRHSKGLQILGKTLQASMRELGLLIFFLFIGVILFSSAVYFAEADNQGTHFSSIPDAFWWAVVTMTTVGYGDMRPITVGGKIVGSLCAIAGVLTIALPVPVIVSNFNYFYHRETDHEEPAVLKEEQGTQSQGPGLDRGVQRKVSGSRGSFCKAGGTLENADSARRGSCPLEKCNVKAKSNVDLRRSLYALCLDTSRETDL
Chain of hERG (Q12809 whole entry): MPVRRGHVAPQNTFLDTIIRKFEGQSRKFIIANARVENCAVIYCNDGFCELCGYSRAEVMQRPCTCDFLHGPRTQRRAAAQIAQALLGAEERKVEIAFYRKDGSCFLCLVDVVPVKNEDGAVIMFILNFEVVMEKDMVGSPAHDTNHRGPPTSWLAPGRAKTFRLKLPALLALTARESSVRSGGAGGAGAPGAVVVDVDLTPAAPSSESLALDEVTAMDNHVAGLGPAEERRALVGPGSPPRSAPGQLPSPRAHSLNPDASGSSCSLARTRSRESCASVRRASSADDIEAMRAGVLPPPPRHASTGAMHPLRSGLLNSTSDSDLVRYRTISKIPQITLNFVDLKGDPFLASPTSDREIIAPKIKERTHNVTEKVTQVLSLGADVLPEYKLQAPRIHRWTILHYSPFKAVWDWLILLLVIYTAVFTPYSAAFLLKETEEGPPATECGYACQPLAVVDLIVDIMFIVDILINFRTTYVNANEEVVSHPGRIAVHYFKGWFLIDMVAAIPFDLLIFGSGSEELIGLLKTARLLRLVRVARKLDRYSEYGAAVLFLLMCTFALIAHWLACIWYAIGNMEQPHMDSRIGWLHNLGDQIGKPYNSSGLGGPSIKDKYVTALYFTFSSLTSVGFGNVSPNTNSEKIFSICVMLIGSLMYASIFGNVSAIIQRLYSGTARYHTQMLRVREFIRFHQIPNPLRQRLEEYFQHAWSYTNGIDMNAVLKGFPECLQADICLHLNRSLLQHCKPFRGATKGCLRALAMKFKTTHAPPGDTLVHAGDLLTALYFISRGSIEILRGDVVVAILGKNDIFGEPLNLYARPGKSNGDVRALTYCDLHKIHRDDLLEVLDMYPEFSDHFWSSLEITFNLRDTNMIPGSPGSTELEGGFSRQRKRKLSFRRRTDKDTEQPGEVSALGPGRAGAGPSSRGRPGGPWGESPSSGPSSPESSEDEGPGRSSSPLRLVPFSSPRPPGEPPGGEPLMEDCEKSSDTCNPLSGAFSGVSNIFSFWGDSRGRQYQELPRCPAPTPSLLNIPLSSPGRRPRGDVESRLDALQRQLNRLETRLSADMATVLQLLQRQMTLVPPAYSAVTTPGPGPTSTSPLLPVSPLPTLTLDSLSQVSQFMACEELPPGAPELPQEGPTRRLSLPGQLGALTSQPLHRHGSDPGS

The term IC50 denotes the concentration needed to halve the response being measured. On to `O=C(c1ccccc1F)N1CCN(Cc2c(-c3ccc(Br)cc3)nc3ccccn23)CC1` [BAY 1000493, (4-{[2-(4-bromophenyl)imidazo[1,2-a]pyridin-3-yl]methyl}vpiperazin-1-yl)(2-fluorophenyl)methanone], for which the IC50 is over 30 µM on TRPV4; 19 µM against Kv1.5; over 30 µM on TRPA1; 2400 nM on hERG; over 30 µM against TRPC5; over 30 µM against Cav1.2.

Source of the values: publication doi:10.1101/706168v1 (biorxiv, 2019).
